This is an account of results in ChEMBL document CHEMBL5230123, “A comprehensive review of monoamine oxidase inhibitors as Anti-Alzheimer's disease agents: A review” (Eur J Med Chem, 2020).

The IC50 is the midpoint of a concentration-inhibition curve. In general, inhibition refers to the relative decrease from the control value, in per cent. Read a high inhibition as a response far below the control. As a reminder, the Ki is the equilibrium dissociation constant of an inhibitor or competing ligand from its target. Usually bioavailability stands for dose-corrected exposure relative to a reference, in per cent. Low readings indicate little systemic uptake, high ones much systemic uptake.

The target in data set [1] is T1, Amine oxidase [flavin-containing] B (Homo sapiens, UniProt P27338).
T1 sequence (P27338 whole entry): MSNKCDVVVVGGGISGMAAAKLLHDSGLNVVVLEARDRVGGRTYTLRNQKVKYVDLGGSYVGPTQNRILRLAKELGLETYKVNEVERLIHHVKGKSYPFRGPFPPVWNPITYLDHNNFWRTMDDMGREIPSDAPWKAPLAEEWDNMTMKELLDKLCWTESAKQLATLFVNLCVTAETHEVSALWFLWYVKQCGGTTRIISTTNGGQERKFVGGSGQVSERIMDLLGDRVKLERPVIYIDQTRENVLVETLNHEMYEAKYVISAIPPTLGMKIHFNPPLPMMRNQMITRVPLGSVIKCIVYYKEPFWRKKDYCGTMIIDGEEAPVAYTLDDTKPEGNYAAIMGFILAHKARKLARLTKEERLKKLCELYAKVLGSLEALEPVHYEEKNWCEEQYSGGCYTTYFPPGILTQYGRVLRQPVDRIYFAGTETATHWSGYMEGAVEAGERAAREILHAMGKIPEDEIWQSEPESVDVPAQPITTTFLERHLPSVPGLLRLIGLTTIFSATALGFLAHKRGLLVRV
Put plainly: Inhibition of MAO-B (unknown origin) using as tyramine as substrate by Ampliflu red reagent based fluorometric method.

In data set [2] the target is Acetylcholinesterase (Electrophorus electricus, UniProt O42275). Put plainly: Inhibition of electric eel AChE using acetylthiocholine iodide as substrate incubated for 6 mins followed by substrate addition by DTNB reagent based Ellman's method. In general terms: DTNB colorimetry detects thiols as they appear.
Data set [3] concerns the target T1, Amine oxidase [flavin-containing] B. Description: Inhibition of recombinant human MAO-B using p-tyramine as substrate incubated for 15 mins followed by substrate addition and measured upto 20 mins by Amplex Red assay.
Data set [4] addresses T2, Amine oxidase [flavin-containing] A (Homo sapiens, UniProt P21397).
T2 sequence (P21397 whole entry): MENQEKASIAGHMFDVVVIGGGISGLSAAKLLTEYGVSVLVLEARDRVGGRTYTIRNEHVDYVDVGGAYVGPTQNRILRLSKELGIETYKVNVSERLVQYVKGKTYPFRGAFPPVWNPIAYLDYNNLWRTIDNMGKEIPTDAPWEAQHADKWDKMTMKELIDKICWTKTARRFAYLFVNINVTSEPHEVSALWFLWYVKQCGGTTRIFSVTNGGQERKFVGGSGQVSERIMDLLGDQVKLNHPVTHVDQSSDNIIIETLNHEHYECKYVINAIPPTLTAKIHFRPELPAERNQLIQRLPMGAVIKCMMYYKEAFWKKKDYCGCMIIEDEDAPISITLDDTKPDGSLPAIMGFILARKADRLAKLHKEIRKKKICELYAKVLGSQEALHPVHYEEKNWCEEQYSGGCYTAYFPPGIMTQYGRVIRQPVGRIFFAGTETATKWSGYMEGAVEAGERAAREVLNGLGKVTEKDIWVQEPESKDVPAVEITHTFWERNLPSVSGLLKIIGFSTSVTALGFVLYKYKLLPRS
Put plainly: Inhibition of recombinant human MAO-A using p-tyramine as substrate incubated for 15 mins followed by substrate addition and measured for 15 to 20 mins by Amplex Red assay.

Data set [5] addresses Cholinesterase (Equus caballus) (UniProt P81908). Description: Inhibition of horse serum BuChE using butyrylthiocholine iodide as substrate at 10 uM incubated for 6 mins followed by substrate addition by DTNB reagent based Ellman's method.
For data set [6], the target named is T2, Amine oxidase [flavin-containing] A. Description: Inhibition of recombinant human MAO-A using kynuramine as substrate incubated for 10 mins followed by substrate addition and measured for 20 mins by Fluorescence microplate reader assay.
The target of data set [7] is T1, Amine oxidase [flavin-containing] B. Put plainly: Inhibition of human MAO-B using tyramine as substrate by amplex red assay.
For data set [8] the target is unchanged. Description: Inhibition of MAO-B (unknown origin) using tyramine hydrochloride as substrate incubated for 30 mins followed by substrate addition and measured after 5 mins by spectrophotometric assay.
For data set [9], the target named is T3, Amine oxidase [flavin-containing] B (Rattus norvegicus, UniProt P19643).
T3 sequence (P19643 whole entry): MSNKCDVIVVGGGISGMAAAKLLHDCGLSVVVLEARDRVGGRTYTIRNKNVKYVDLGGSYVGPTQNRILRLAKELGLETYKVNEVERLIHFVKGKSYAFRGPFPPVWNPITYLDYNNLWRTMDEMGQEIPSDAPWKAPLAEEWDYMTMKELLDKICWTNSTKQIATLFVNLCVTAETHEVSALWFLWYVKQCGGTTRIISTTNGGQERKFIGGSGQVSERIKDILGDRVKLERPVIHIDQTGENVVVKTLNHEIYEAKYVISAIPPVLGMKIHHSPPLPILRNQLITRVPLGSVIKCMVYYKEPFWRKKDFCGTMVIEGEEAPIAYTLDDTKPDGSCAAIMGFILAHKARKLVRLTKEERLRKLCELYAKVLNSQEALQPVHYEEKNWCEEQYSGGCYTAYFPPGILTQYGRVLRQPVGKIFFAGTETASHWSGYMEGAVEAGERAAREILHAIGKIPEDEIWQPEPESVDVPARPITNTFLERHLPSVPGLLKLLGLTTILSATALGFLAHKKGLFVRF
Put plainly: Inhibition of rat brain mitochondria MAO-B using p-tyramine as substrate incubated for 15 mins followed by substrate addition and measured for 15 by microplate fluorescence reader analysis.

Data set [10] deals with T1, Amine oxidase [flavin-containing] B. Description: Inhibition of human MAO-B.
Data set [11] shares this target. Put plainly: Inhibition of recombinant human MAO-B using kynuramine as substrate incubated for 20 mins by fluorescence spectrophotometric assay.
Data set [12] has the same target. Put plainly: Competitive inhibition of recombinant human MAO-B using kynuramine as substrate incubated for 20 mins by Lineweaver-Burk plot analysis.
The target of data set [13] is T2, Amine oxidase [flavin-containing] A. Description: Inhibition of recombinant human MAO-A using kynuramine as substrate incubated for 20 mins by fluorescence spectrophotometric assay.
The target of data set [14] is T1, Amine oxidase [flavin-containing] B. Description: Inhibition of MAO-B (unknown origin) using kynuramine as substrate preincubated for 10 mins followed by substrate addition and measured after 20 mins by fluorescence microplate reader assay.
The target is the same in data set [15]. Description: Inhibition of human MAO-B using benzylamine as substrate preincubated for 15 mins followed by substrate addition and measured after 15 mins by fluorescence assay.
The target of data set [16] is T4, Acetylcholinesterase (Mus musculus, UniProt P21836).
T4 sequence (P21836 whole entry): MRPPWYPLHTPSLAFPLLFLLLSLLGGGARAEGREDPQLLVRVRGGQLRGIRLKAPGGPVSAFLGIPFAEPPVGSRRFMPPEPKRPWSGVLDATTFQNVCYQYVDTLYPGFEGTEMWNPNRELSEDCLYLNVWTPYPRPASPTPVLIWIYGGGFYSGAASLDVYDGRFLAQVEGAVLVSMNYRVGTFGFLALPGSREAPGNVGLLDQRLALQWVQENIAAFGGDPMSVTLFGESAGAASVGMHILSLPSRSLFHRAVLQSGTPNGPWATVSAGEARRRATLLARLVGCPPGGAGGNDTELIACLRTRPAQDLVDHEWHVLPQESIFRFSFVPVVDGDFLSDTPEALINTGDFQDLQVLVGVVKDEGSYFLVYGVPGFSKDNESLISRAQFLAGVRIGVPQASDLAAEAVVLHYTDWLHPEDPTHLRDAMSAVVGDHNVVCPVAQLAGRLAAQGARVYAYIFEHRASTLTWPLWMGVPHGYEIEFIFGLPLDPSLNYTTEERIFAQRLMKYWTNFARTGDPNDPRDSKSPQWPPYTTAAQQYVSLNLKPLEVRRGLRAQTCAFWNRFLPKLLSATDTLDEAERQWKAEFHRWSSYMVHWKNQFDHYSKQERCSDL
Put plainly: Inhibition of mouse AChE using acetylthiocholine iodide as substrate incubated for 20 mins by DTNB reagent based Ellman's method.

Data set [17] is described as follows: Oral bioavailability in ICR mouse at 10 mg/kg and measured after 24 hrs by HPLC analysis. In kind it is ADME, organism-based. Particulars: in vivo.

Molecules are shown by their SMILES.

Acetylcholinesterase (Electrophorus electricus, UniProt O42275), sequence (O42275 whole entry): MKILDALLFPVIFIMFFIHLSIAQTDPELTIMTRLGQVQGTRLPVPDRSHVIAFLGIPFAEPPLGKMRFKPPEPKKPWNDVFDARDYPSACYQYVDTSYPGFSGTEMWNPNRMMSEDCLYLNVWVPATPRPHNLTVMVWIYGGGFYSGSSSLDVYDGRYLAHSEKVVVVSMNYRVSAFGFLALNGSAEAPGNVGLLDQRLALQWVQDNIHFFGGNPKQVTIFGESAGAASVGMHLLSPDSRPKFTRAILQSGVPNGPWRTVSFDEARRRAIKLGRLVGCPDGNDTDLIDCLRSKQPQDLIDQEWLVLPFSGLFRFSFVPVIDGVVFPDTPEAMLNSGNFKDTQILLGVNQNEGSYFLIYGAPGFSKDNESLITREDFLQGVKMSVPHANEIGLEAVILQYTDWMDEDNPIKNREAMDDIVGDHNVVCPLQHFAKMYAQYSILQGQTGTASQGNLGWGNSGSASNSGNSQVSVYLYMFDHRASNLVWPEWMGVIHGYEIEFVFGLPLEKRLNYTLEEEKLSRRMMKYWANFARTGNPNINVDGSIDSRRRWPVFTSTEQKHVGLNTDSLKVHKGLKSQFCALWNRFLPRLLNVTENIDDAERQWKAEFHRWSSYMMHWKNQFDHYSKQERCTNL
Cholinesterase (Equus caballus), sequence (P81908 whole entry): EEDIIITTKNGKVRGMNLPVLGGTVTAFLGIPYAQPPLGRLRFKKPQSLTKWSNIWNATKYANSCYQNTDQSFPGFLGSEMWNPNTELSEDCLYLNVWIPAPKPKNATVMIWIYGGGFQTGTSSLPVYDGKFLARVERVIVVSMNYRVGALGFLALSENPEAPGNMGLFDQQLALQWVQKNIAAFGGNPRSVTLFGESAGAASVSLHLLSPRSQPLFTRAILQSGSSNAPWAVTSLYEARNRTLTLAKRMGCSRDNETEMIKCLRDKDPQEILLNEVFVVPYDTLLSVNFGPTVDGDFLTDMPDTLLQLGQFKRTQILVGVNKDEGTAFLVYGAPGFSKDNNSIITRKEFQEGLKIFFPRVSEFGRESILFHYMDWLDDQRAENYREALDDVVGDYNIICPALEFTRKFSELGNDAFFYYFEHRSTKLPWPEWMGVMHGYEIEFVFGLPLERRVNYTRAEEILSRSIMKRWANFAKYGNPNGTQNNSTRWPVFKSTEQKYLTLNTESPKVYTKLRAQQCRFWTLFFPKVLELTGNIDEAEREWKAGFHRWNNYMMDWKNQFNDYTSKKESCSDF

Regarding `Cn1cc(/N=C/c2ccc([N+](=O)[O-])cc2)c(=O)n1-c1ccccc1`, in [1], inhibition was half-maximal at 49 nM (IC50).

In the case of `Cc1c(Cl)c(=O)oc2cc(OCCCSC(=S)N3C(C)CCCC3C)ccc12` (stereo not drawn), the results for the IC50 (at Acetylcholinesterase [2]; in data set [3]; in data set [4]) were 44 nM, 101 nM and 5850 nM, respectively. In data set [5], this molecule showed an inhibition of 23.3%.

`CCOc1ccc([N+](=O)[O-])c(N/N=C/c2ccccn2)n1`: in data set [6], the IC50 was 9520 nM. For `Cc1c(/N=C/c2cccc([N+](=O)[O-])c2)c(=O)n(-c2ccccc2)n1C`, in [1], the IC50 was determined as 54 nM. The molecule `Cc1ccc(C2=NO[C@H](c3ccc(Cl)c(Cl)c3)C2)cc1` registered an IC50 in data set [7] of 11000 nM. In data set [8], `CN1CCN(c2ccc(/C=N/Nc3ccccc3)cc2)CC1` had a concentration for half-maximal inhibition (IC50) of 28 nM. As for `C/C(=N\NC(=O)C1CC(c2ccccc2)=NO1)c1ccc(C)cc1` (stereo not drawn), in [9], the IC50 is 5.1 nM. Take `O=c1c(O)c(-c2ccc(O)c(O)c2)oc2cc(O)cc(O)c12` [QUERCETIN]: in [6], the IC50 amounted to 1520 nM.

With `CCOc1ccc([N+](=O)[O-])c(N/N=C/c2cccn2C)n1`, in data set [6], the IC50 was found to be 6120 nM. The molecule `O=C1CCC2(O)c3c(ccc(O)c31)-c1ccc(O)c3c1C2C1OC1C3=O` (stereo not drawn) came in with an IC50 in data set [10] of more than 80000 nM.

As to `Cc1ccc(C2=NOC(c3ccc(Cl)c(Cl)c3)C2)cc1` (stereo not drawn), the IC50 in [7] is 12 nM. For the molecule `O=C1Oc2ccccc2C(=O)/C1=C/NCc1ccccc1`, the values for the IC50 in [11] and in data set [13] were 638 nM and 77900 nM, respectively. Besides, the Ki in data set [12] was 94000 nM. `Cc1c(Cl)c(=O)oc2cc(OCCCCSC(=S)N3CCCCC3C)ccc12` (stereo not drawn): the IC50 was 6.8 nM against Acetylcholinesterase [2] and 8.9 nM in [3]. Take `CCOc1ccc([N+](=O)[O-])c(N/N=C/c2ccco2)n1`: it took 10600 nM to reach half-maximal inhibition in data set [14] (IC50). As for `C#CCNCc1ccc2c(c1)ncn2-c1cc(NC(=S)NCC)ncn1`, the 50% inhibitory concentration (IC50) in [15] worked out at 2120 nM; on Acetylcholinesterase [16], 32 nM. The molecule also returned a bioavailability in [17] of 45.5%.
